Entries after “also recorded” stand apart in the source; their conditions may differ.
Columns and labels:
[1] = parameters: method as in PMID 35959805; conditions: UP0030 study participants, 2 h post dose; cited from earlier work
[2] = Phase 1 PET-CT brain biodistribution study TM0017 (VT, K1, k2); type: in vivo, human
Protocol: A sample size of 2–10 participants was considered sufficient to meet the objectives, whilst limiting radiation exposure.
The preparation of radiopharmaceuticals and execution of PET-CT scans was performed by radiochemists, physicians, and technologists of Invicro (London, UK). Following local anesthesia, a catheter was inserted into the radial artery by an experienced physician; two venous catheters were also inserted. […] Upon administration, dynamic scanning started immediately and continued for 90 min.
Arterial input function data were acquired and processed for all PET scans.
Anatomical regions of interest (ROI) were defined via nonlinear deformation of a template MR image and associated neuroanatomical atlas, to match individual participants’ MR images. These ROI included, but were not limited to: parietal lobe, occipital lobe, frontal lobe, temporal lobe, striatum, cerebellum, thalamus, and the brain stem. Participants’ PET images were registered to their MR images, enabling the individualized ROI to be applied to the dynamic emission data to generate regional time activity curves (TACs). For additional information on the generation of regional TACs, see the electronic supplement.
Phase 1 PET Study in Healthy Male Participants (TM0017)
The TAC and total plasma data were fitted to a single compartment model to determine the influx and efflux constants K1 and k2. Because the plasma free fraction estimate is imprecise, we elected to fit the model using the total (free and bound) arterial concentration input function. The parameters of this model are related to the analogous parameters which would be estimated using an accurate estimate of the free arterial concentration using the equations below. We were able therefore to determine and present the K1 and estimated whole brain total distribution volume (VT), with relatively good repeatability between patients, and the equations below could also be used to relate the overall mean estimates back to the ideal total brain to free plasma minzasolmin (V’T) and unidirectional extraction Eu which can be calculated using the free fraction. The blood volume in the model was fixed at 5%. In this model, radiotracer which is free in tissue, non-specifically bound and specifically bound (i.e. to a target of interest) are lumped together in a single compartment, and so interchange between those states is assumed to be rapid.
The arterial input function used represents the total concentration of parent radiotracer in plasma, with no correction for plasma protein binding and the fitted and observed K1 from this model is lower than the rate of uptake from the free plasma concentration (K’1):
To calculate the Eu from the observed K1 from the model we then need to combine […]
The partition coefficient between total brain and total plasma concentration was determined from the fitted K1 and k2 parameters: […]
and the ratio of total concentration in brain to free concentration in plasma ( V’T) could be […]
Supplemental Fig. 1. Example of HPLC chromatograms (radioactive trace, top; UV trace, bottom) obtained during HPLC analysis of [11C-N-CH3]UCB2713 dose. The time delay

[3] = Plasma pharmacokinetics after single oral dose in TM0017; type: in vivo; conditions: male, human, TM0017, single oral 360 mg
Plasma free fraction = type: in vitro ADME; conditions: human plasma
[4] = parameters: method as in PMID 35959805; conditions: cited from earlier work
Caco-2 cell system = test system: Caco-2 cell system; parameters: method as in PMID 35959805; conditions: Caco-2, in vitro; cited from earlier work
ASYN pathology = conditions: mouse model of PD, once-daily over 3 months; cited from earlier work
[5] = Safety and tolerability in TM0017 (TEAEs, ECG, vital signs)
Protocol: Other safety variables recorded include changes in 12-lead electrocardiogram (ECG) assessment and changes in vital signs (heart rate, systolic blood pressure, diastolic blood pressure, respiratory rate, and body temperature). Vital signs were measured in supine position following 5 min of rest and clinically significant abnormalities (according to the investigator) were recorded as an AE. All ECG recordings were performed following 5 min of rest in the supine position, in triplicate, with ≥ 1 min between each recording. If any clinically significant abnormalities occurred, an ECG data specialist was to review the recordings.

[6] = UP0030, 90–450 mg single ascending dose
[7] = TM0017, N = 4, single oral dose 360 mg

CCCC[C@H](Cc1c[nH]c2ccccc12)NC(=O)c1cnc(N2CC[N+](C)([O-])CC2)s1 [N-oxide]
concentration in CSF, times lower than the parent minzasolmin concentration [1]: ~ 20 times

CCCC[C@H](Cc1c[nH]c2ccccc12)NC(=O)c1cnc(N2CCN(C)CC2)s1 [minzasolmin, N-[(1R)-1-(1H-indol-3-ylmethyl)pentyl]-2-(4-methylpiperazin-1-yl)thiazole-5-carboxamide]
Kp ([2]; male, human, brain/plasma, intravenous, steady-state, from VT, read-out: Kp (total brain to total plasma concentration, partition coefficient)): ~0.5
maximum projected human total brain concentration ([2]; minzasolmin 360 mg/day dose, with plasma concentrations of UP0077): up to 1273 ng/mL
AUC ([3]; read-out: AUC GeoMean (time zero to infinity)): 13200 ng·h/mL
Cmax ([3]; read-out: Cmax GeoMean): 1580 ng/mL
half-life ([3]; read-out: apparent terminal elimination half-life (GeoMean) (converted)): 11.4 h
Tmax ([3]; read-out: tmax Median): 2 h
fraction unbound (Plasma free fraction): ~0.025
AUC GeoMean (time zero to infinity) [4, 6]: 3225 to 17040 ng·h/mL
Cmax GeoMean [4, 6]: 374 to 1806 ng/mL
tmax Median [4, 6]: 1.5 to 2 h
apparent terminal elimination half-life, GeoMean range ([4]; previous phase 1/1b studies): 9.3 to 13.1 h
permeability (Caco-2 cell system): high permeability
tolerability (ASYN pathology): well-tolerated
Any TEAEs [5, 7]: 3 (75) n (%)
Deaths [5, 7]: 0 n (%)
Discontinuations due to TEAEs [5, 7]: 0 n (%)
Drug-related TEAEs [5, 7]: 0 n (%)
Serious TEAEs [5, 7]: 0 n (%)
Severe TEAEs [5, 7]: 0 n (%)
TEAEs of special interest [5, 7]: 0 n (%)
ECG parameters, vital signs, laboratory parameters ([5]; TM0017, healthy male participants): No clinically relevant findings in ECG parameters or vital sign measurements; also recorded: no clinically relevant findings in laboratory parameters, vital signs, or ECG recordings
participants reporting TEAEs ([5]; TM0017 overall, three out of four participants): 75%
